# Source: patent US9828349B2, “1-aryl-1-hydroxy-2,3-diamino-propyl amines, 1-heteroaryl-1-hydroxy-2,3-diamino-propyl amines and related compounds having analgesic and/or immuno stimulant activity” (Allergan, Inc., priority 2005, dated 2017)
# How the values were obtained:
# GlcCer synthase = molecular target: T1, GlcCer synthase (Homo sapiens, UniProt Q16739); conditions: cited from earlier work
# T1 sequence (Q16739 1-394): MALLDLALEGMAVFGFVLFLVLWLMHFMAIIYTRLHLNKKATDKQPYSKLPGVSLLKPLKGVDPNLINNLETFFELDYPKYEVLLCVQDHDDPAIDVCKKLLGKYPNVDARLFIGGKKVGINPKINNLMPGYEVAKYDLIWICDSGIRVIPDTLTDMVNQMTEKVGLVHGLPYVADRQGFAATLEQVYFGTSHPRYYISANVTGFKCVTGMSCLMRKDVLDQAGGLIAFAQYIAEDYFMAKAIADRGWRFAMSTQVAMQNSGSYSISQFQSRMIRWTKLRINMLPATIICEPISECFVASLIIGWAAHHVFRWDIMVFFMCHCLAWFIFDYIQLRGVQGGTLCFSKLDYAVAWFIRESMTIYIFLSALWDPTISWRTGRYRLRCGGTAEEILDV
# [1] = test system: tactile allodynia (Chung model); assay: Chung model: reversal of tactile allodynia after spinal nerve ligation (von Frey hairs); assay type: in vivo; conditions: highest % allodynia reversal out of 15, 30, 60 min post-drug, rat
# Source text: An art-accepted model or assay for measuring an analgesic effect of a compound in chronic pain (in particular peripheral neuropathy) is the model known as Kim and Chung 1992, Pain […], pp 355-363 (Chung model). This model involves the surgical ligation of the L5 (and optionally the L6) spinal nerves on one side in experimental animals. Rats recovering from the surgery gain weight and display a level of general activity similar to that of normal rats. However, these rats develop abnormalities of the foot, wherein the hindpaw is moderately everted and the toes are held together. More importantly, the hindpaw on the side affected by the surgery appears to become sensitive to low-threshold mechanical stimuli and will perceive pain instead of the faint sensation of touch. This sensitivity to normally non-painful touch, called “tactile allodynia”, develops within the first week after surgery and lasts for at least two months. The allodynia response includes lifting the affected hindpaw to escape from the stimulus, licking the paw and holding it in the air for many seconds. None of these responses is normally seen in the control group.
# To produce the tactile allodynia, rats are anesthetized before surgery. The surgical site is shaved and prepared either with betadine or Novacaine. Incision is made from the thoracic vertebra XIII down toward the sacrum. Muscle tissue is separated from the spinal vertebra (left side) at the L4-S2 levels. […]
# Tactile allodynia is assessed via von Frey hairs, which are a series of fine hairs with incremental differences in stiffness. […] The applied force has been calculated to range from 0.41 to 15.1 grams. […] The 50% paw withdrawal threshold is determined using the method of Dixon, W. J., Ann. […] Tactile allodynia is measured prior to and 15, 30, and 60 minutes after drug administration. The post-drug threshold is compared to the pre-drug threshold and the percent reversal of tactile sensitivity is calculated based on a normal threshold of 15.1 grams. […]
# [2] = test system: spatial memory deficit after transient forebrain ischemia; conditions: treatment after transient forebrain ischemia in rats; cited from earlier work
SMILES,inhibition of GCS (glucosylceramide synthase) (GlcCer synthase),Peak % Pain reversal ([1]; 300 μg/kg IP),further results
"O=C(N[C@H](CN1CCCC1)[C@H](O)c1ccccc1)OCc1ccccc1 [PBPP, D-threo-1-phenyl-2-benzyloxycarbonylamino-3-pyrrolidino-1-propanol]",potent GCS inhibitor,–,–
"Cl.O=C(N[C@@H](CN1CCOCC1)[C@@H](O)c1ccccc1)OCc1ccccc1 [Compound 1, benzyl L-threo-1-hydroxy-3-morpholino-1-phenylpropan-2-ylcarbamate hydrochloride]",–,44%,–
"CC(=O)O[C@@H](c1ccccc1)[C@H](CN1CCOCC1)NC(=O)OCc1ccccc1.Cl [Compound 3, benzyl L-threo-1-acetoxy-3-morpholino-1-phenylpropan-2-ylcarbamate hydrochloride]",–,92%,–
"CCCCCCCCCC(=O)N[C@@H](CN1CCOCC1)[C@@H](O)c1ccccc1 [L-threo-PDMP, (1S,2S)-1-phenyl-2-decanoylamino-3-morpholino-1-propanol]",–,–,deficit of a well learned spatial memory (8-arm maze task) [2]: ameliorated the deficit of a well learned spatial memory
CCCCCCCCCCCCCCCC(=O)N[C@H](CN1CCCC1)[C@H](O)c1ccc(O)cc1 [D-threo-4′-hydroxy-P4],one of the most potent inhibitor of GCS,–,–
"N[C@@H](CN1CCCC1)[C@@H](O)c1ccncc1 (racemic) [Compound 46, DL-threo-2-amino-1-(pyridin-4-yl)-3-(pyrrolidin-1-yl)propan-1-ol]",–,–,Peak % Pain reversal ([1]; 30 μg/kg IP): 96%
